Measurements as given in BindingDB's records for doi:10.1124/jpet.102.034249 (Sanofi-Synthelabo Recherche, 2002).

Legend:
[1] = molecular target: 5-hydroxytryptamine receptor 5A (Homo sapiens, UniProt P47898)
[2] = molecular target: T1, 5-hydroxytryptamine receptor 1A (Homo sapiens, UniProt P08908)
T1 sequence (P08908 whole entry): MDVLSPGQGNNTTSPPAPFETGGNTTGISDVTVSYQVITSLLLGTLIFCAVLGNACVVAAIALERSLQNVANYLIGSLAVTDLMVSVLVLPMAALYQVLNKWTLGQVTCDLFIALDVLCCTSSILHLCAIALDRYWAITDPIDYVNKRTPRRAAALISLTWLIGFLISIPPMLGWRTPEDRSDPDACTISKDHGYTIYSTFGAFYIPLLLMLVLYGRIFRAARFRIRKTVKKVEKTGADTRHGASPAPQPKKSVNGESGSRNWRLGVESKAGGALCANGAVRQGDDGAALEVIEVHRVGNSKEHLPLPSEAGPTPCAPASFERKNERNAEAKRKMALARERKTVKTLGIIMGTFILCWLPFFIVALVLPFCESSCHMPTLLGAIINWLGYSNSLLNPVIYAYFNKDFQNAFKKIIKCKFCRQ

[3] = molecular target: T2, 5-hydroxytryptamine receptor 3A (Homo sapiens, UniProt P46098)
T2 sequence (P46098 whole entry): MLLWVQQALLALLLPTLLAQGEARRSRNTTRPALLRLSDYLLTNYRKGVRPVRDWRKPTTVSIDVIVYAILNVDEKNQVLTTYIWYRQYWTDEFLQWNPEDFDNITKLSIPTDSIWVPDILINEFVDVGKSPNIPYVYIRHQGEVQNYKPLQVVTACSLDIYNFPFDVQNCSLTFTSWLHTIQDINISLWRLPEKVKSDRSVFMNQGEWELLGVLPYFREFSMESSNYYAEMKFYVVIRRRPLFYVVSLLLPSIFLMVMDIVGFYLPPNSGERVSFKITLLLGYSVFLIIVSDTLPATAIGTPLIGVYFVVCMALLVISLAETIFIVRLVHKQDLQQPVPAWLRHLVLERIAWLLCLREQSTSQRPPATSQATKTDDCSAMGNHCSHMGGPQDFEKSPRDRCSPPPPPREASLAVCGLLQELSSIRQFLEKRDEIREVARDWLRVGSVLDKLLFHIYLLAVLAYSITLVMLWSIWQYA

[4] = molecular target: 5-hydroxytryptamine receptor 2B (Homo sapiens, UniProt P41595)
[5] = molecular target: 5-hydroxytryptamine receptor 6 (Homo sapiens, UniProt P50406)
[6] = molecular target: 5-hydroxytryptamine receptor 1D (Homo sapiens, UniProt P28221)
[7] = molecular target: 5-hydroxytryptamine receptor 1B (Homo sapiens, UniProt P28222)
[8] = molecular target: T3, 5-hydroxytryptamine receptor 2C (Homo sapiens, UniProt P28335)
T3 sequence (P28335 whole entry): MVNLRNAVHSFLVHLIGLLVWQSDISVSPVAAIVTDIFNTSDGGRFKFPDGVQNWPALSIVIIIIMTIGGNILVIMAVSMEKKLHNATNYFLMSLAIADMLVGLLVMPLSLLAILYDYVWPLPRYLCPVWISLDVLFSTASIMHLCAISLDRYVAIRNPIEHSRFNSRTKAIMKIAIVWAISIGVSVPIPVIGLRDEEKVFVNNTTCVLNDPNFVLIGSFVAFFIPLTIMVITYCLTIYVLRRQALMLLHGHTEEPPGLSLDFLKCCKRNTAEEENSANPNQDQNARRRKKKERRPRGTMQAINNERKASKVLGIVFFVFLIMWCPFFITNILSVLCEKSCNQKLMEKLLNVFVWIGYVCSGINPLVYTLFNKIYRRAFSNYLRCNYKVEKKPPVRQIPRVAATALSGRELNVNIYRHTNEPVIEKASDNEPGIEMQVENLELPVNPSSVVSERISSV

[9] = molecular target: 5-hydroxytryptamine receptor 4 (Homo sapiens, UniProt Q13639)
[10] = molecular target: 5-hydroxytryptamine receptor 7 (Homo sapiens, UniProt P34969)
[11] = molecular target: 5-hydroxytryptamine receptor 2A (Homo sapiens, UniProt P28223)
Sequence of 5-hydroxytryptamine receptor 2A (P28223 whole entry): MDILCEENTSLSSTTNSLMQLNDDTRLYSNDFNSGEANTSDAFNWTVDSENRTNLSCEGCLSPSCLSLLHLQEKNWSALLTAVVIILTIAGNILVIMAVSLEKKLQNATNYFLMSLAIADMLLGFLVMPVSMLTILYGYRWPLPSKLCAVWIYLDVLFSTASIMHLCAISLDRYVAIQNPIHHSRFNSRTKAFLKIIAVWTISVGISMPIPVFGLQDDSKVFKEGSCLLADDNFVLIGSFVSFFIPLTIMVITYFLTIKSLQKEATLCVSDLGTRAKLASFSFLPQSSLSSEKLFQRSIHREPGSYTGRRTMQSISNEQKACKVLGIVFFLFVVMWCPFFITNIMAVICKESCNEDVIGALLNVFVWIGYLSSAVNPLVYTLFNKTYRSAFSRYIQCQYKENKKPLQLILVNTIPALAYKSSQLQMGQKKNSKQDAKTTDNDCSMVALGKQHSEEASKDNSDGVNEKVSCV

Sequence of 5-hydroxytryptamine receptor 1B (P28222 whole entry): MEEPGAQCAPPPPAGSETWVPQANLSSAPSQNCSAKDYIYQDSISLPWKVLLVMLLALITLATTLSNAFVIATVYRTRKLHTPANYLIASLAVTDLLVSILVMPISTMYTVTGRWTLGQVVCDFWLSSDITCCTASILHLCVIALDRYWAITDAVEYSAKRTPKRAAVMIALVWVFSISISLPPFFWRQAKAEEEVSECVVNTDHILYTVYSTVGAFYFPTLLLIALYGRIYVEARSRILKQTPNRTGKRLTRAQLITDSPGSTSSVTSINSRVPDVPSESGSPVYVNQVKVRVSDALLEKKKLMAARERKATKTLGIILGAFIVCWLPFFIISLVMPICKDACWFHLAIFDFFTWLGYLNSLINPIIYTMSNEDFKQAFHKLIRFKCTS
Sequence of 5-hydroxytryptamine receptor 4 (Q13639 whole entry): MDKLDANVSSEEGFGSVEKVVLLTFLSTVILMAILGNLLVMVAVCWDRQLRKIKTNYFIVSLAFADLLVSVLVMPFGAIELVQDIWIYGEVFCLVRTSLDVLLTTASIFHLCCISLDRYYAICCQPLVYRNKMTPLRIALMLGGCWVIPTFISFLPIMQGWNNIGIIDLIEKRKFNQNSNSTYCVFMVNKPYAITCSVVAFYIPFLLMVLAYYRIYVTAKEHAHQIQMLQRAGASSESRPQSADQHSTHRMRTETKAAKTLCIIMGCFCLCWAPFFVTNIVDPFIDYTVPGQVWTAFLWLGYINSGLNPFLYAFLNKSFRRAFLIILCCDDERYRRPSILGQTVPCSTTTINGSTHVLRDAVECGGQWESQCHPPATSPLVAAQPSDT
Sequence of 5-hydroxytryptamine receptor 6 (P50406 whole entry): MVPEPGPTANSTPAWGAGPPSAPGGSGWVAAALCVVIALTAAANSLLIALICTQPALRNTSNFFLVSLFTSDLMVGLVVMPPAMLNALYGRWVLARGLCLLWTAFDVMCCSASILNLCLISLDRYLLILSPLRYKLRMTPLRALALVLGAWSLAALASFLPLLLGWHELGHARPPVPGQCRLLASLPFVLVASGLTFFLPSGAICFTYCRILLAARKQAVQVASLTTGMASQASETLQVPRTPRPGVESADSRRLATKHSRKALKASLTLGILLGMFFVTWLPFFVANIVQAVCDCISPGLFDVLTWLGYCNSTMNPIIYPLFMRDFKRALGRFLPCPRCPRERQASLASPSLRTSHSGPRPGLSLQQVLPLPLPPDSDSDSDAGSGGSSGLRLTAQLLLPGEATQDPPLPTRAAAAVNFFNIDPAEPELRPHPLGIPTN
Sequence of 5-hydroxytryptamine receptor 1D (P28221 whole entry): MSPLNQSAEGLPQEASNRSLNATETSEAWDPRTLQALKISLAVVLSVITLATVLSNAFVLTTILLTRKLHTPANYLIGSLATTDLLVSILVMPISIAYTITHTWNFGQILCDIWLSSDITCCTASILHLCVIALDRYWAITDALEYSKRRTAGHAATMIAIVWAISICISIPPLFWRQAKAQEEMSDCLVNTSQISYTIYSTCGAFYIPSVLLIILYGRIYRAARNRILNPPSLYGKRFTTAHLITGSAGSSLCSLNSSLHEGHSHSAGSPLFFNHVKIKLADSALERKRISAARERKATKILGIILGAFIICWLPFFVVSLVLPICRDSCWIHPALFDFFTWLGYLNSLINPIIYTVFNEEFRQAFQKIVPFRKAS
Sequence of 5-hydroxytryptamine receptor 2B (P41595 whole entry): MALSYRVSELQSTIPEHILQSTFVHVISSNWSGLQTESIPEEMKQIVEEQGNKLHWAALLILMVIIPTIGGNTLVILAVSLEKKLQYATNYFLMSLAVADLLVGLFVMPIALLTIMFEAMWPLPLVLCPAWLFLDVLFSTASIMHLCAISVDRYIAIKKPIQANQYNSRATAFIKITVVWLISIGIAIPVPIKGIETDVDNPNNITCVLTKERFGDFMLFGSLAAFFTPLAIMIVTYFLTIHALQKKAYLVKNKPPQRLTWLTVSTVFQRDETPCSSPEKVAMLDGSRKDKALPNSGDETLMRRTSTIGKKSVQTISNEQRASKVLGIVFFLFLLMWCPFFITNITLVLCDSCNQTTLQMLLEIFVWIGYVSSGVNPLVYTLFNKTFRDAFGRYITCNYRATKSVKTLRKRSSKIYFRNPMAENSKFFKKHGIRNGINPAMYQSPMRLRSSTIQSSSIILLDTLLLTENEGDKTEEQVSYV
Sequence of 5-hydroxytryptamine receptor 7 (P34969 whole entry): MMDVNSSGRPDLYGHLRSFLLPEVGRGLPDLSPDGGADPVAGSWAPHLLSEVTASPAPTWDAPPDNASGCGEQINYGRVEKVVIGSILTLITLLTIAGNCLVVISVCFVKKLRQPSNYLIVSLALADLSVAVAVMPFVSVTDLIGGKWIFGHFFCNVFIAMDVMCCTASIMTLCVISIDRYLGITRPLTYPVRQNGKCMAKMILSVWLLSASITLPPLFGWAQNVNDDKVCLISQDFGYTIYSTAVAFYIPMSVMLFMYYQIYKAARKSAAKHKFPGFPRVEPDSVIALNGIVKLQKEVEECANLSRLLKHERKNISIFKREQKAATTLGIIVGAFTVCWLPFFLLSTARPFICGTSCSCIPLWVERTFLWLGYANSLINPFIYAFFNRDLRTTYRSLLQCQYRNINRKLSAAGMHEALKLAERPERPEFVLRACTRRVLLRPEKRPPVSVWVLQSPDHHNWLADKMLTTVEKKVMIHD
Sequence of 5-hydroxytryptamine receptor 5A (P47898 whole entry): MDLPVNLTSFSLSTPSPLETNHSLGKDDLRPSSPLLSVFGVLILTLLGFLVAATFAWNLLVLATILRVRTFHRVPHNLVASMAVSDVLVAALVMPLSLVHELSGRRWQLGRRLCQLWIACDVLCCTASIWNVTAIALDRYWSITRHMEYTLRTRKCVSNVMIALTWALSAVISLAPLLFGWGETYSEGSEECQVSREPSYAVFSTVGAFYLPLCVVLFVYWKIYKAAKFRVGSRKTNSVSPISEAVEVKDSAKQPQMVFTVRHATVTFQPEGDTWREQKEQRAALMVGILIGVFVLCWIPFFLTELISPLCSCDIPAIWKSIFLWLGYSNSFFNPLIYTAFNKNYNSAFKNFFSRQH

Ki [1]: > 10000 nM
Ki [2]: 1020 nM
Ki [3]: > 10000 nM
Ki [4]: 1560 nM
Ki [5]: 2580 nM
Ki [6]: 7990 nM
Ki [7]: 5500 nM
Ki [8]: 4780 nM
Ki [9]: 0.6 nM
Ki [10]: 3260 nM
Ki [11]: 1320 nM
SMILES: Nc1c(Cl)cc(-c2nn(C3CCN(CCc4ccccc4)CC3)c(=O)o2)c2c1OCCO2 [SL65.0155]
